Patent US20180116209A1, “Liposome Formulations” (priority 2012, published 2018)

Experiments:
Root-Knot larvae (J2) = assay: Efficacy of nematicides (Oxamyl, Thiodicarb) in killing Root-Knot larvae (J2) in vitro; assay type: in vivo, M. incognita; settings: compared with Oxamyl, 200 ug to 10 mg
Protocol: M. incognita eggs collected from tomato cultures by NaOC1 extraction (Hussey and Barker, 1973). Briefly, six to twelve week old infected tomato roots were cut into 1-2 segment. Root segments were shacked vigorously in 200 ml of a 0.5% Na O Cl solution for 4 min. Then, the Na O Cl solution was passed quickly through a 200-mesh (75-um), nested over a 500-mesh sieve to collect freed eggs. The a 500-mesh sieve with eggs was quickly placed under a stream of cold water to remove residual Na O Cl and rinsed several times. About 50 ml aqueous suspension of eggs was collected and number of eggs per unit volume will be counted. The egg suspension was allowed to sit at room temperature for 4 days. The hatching juveniles were collected and used in the subsequent experiments.
Determine the efficient concentration of nematicides (Oxamyl and Thidiocarb) that kill or suppress Root-Knot Larvae.
M. incognita eggs collected from tomato cultures by NaOC1 extraction (Hussey & Barker, Plant Disease Reporter. 57:1025-1028 (1973)). Egg suspension was incubated at room temperature until larvae were hatched (4-5 days). The juveniles (J2) were counted and evaluated for activity/mobility for the duration of the study. Four different concentrations of both nematicides (Oxamyl and Thiodicarb) were used to assess their efficacy in killing the nematodes. These were untreated control, 200 ug, 1 mg, 2 mg, and 10 mg. […]

[1] = tested on: nematodes in a dehydrated state; settings: dry soils; cited from earlier work
plant roots = assay: Abamectin applied to soil prior to planting: gall formation, root necrosis, root length; assay type: in vivo
Protocol: Abamectin at 5 μg or 1 μg was directly applied to soil prior to planting. Alternatively abamectin was loaded into liposomes at either 5 μg or 1 μg and applied to soil prior to planting. Gall formation was detected. […] Therefore, liposomal abamectin formulations enhance root length as compared to non-liposomal abamectin formulations.

CS/C(C)=N\OC(=O)N(C)SN(C)C(=O)O/N=C(\C)SC [Larvin (Thiodicarb), Thiodicarb]
concentration needed to kill Root-Knot (J2) (Root-Knot larvae (J2)): required higher concentration to kill Root-Knot (J2)

CBr [methyl bromide]
tolerated dose compared to active forms in moist soil [1]: 10 times the lethal dose

abamectin [non-liposomal abamectin]
root necrosis (plant roots; 1 μg applied to soil prior to planting, FIG. 4): most root necrosis followed by the non-liposomal abamectin 1 μg application
gall formation (plant roots; 5 μg applied to soil prior to planting, FIG. 3): most gall formulation followed by the non-liposomal abamectin 5 μg application
